Reference: patent US6656509B1, “Combination of selenium-containing compounds with cytostatics” (Biosyn Arzneimittel GmbH, priority 1998, dated 2003)
Read-outs that look alike come from different tables or passages of the source.

Tests used:
[1] = tested on: MAXF 401NL; experiment: clonogenic assay (colony forming assay); format: cell-based, human; details: MAXF 401/16, X186AM
Procedure: (§1) Solid human tumor xenografts growing subcutaneously in serial passages in thymus-aplastic nude mice (NMRI nu/nu strain, obtained from our own breeding facility) were removed under sterile conditions, the cells were mechanically disaggregated and subsequently incubated with an enzyme cocktail consisting of collagenase (1.2-1.8 U/ml, Worthington), DNAse (375 U/ml, Boehringer Mannheim) und hyaluronidase (29 U/ml, Boehringer Mannheim) in RPMI 1640 at 37° C. for 30 minutes. The cell mixture was passed through sieves of 200 μm and 50 μm mesh size and washed thereafter twice with PBS. The percentage of viable cells was determined in a Neubauer counting chamber using trypan blue exclusion.
(§2) The clonogenic assay was performed according to a modified two-layer soft agar assay described by Hamburger and Salmon (Hamburger and Salmon, Science, 197: 461463, 1977). The bottom layer consisted of 0.2 ml Iscoves' Modified Dulbecco's Medium with 20% fetal calf serum and 0.75% agar. 8×10^3 to 1,6×10^4 cells were added to 0.2 ml of the same culture medium together with 0.4% agar and placed in already coated 24-multiwell dishes. Test substances were applied by continuous exposure (drug overlay) in 0.2 ml medium. Every dish included six control wells containing the vehicle- and drug-treated groups in triplicate at six concentrations.
(§3) Cultures were incubated at 37° and 7% CO2 in a humidified atmosphere for 5 to 15 days (depending on the doubling time of the tumor stem cells) and monitored for colony growth using an inverted microscope. Within this period, in vitro tumor growth led to the formation of colonies with a diameter of ≧50 μm. At the time of maximum colony formation counts were performed with an automatic image analysis system (OMNICOM Fas IV, Biosys GmbH). 24 hours prior to this assay, vital colonies were stained with a sterile aqueous solution of 2-(4-iodophenyl)-3-(4-nitrophenyl)-5-phenyltetrazolium chloride (1 mg/ml, 100 μI/well). Drug effects were expressed in terms of the percentage of surviving cells, obtained by comparison of the mean number of colonies in the treated plates with the mean colony count of the untreated controls (test-versus-control-group value, T/C=colony countTreated Group*100/colony countControl Group).
(§4) Coefficient of variation in the control group ≦50%. IC50 and IC70 values were determined by plotting compound concentration versus cell survival rate. Mean IC50 and IC70 values were calculated according to the formula: [formula]
(§5) with x=specific tumor xenograft and n=total number of tumor xenografts studied. If an IC50 or IC70 value could not be determined within the examined dose range, the lowest or highest concentration studied was used for the calculation.

[2] = tested on: OVXF 1353; experiment: clonogenic assay (colony forming assay); format: cell-based, human; details: OVXF 1353/17; X217AM
Procedure: as §1, §2, §3, §4, §5

[3] = tested on: pancreatic cancer xenograft PAXF 546; experiment: clonogenic assay, single agents and combination studies; format: cell-based, human
Procedure: (§6) The cell mixture was passed through sieves of 200 μm and 50 μm mesh size and washed thereafter twice with PBS. The percentage of viable cells was determined in a Neubauer counting chamber using trypan blue exclusion.
(§7) 8×10^3 to 1,6×10^4 cells were added to 0.2 ml of the same culture medium together with 0.4% agar and placed in already coated 24-multiwell dishes. Test substances were applied by continuous exposure (drug overlay) in 0.2 ml medium. Every dish included six control wells containing the vehicle- and drug-treated groups in triplicate at six concentrations.
as §3, with “24 hours prior to this assay, vital colonies were stained with a sterile aqueous solution of 2-(4-iodophenyl)-3-(4-nitrophenyl)-5-phenyltetrazolium chloride (1 mg/ml, 100 μI/well).” left out
as §4, §5
(§8) Each experiment included the chemotherapeutic agents in 6 concentrations, selenium in 2 concentrations (3 and 30 μM), and the combination of all doses with selenium at 3 and 30 μM. All compounds and combinations were studied in triplicates. […] Each experiment was performed twice.
(§9) T/Cexpectd(A+B)=T/C(A)×T/C(B)/100
(§10) For a zero-interactive drug combination (additivity of drug effects) T/Cexpected(A+B)[…]T/Cobserved(A+B). A drug combination is synergistic if T/Cobserved(A+B) is statistically significant[…]T/Cexpected(A+B). Statistical significance was determined by the T-test.

[4] = tested on: pancreatic cancer xenograft PAXF 736; experiment: as above; format: cell-based, human
Procedure: as §6, §7
as §3, with “24 hours prior to this assay, vital colonies were stained with a sterile aqueous solution of 2-(4-iodophenyl)-3-(4-nitrophenyl)-5-phenyltetrazolium chloride (1 mg/ml, 100 μI/well).” left out
as §4, §5, §8, §9, §10

[5] = cited from earlier work

With `O=[Se]([O-])[O-].[Na+].[Na+]` [sodium selenite] the “Test/control (%) at drug concentration [μM] 1.” value [1] was 74%, the “Test/control (%) at drug concentration [μM] 10.” value [1] was 66% and the “Test/control (%) at drug concentration [μM] 100.” value [1] was 8%. The “Test/control (%) at drug concentration [μM] .1” value [1] was 53%, the “Test/control (%) class at drug concentration [μM] 1.” value (“Test/control (%) class … [μM] 1.” below) [1] was “− (− (T/C ≧ 50%))” and the “Test/control (%) class at drug concentration [μM] 10.” value (shortened to “Test/control (%) class … [μM] 10.”) [1] was “− (− (T/C ≧ 50%))”. For the same compound, the “Test/control (%) class at drug concentration [μM] 100.” value (from here on “Test/control (%) class … [μM] 100.”) [1] was “+++ (+++ (T/C ≦ 10%))”, the “Test/control (%) class at drug concentration [μM] .1” value (from here on “Test/control (%) class … [μM] .1”) [1] was “− (− (T/C ≧ 50%))” and the “Test/control (%) at drug concentration [μM] .001” value ([1]; s result of a dish) was 67%. The “Test/control (%) at drug concentration [μM] .01” value ([1]; s result of a dish) was 81%, the “Test/control (%) class at drug concentration [μM] .001” value (“Test/control (%) class … [μM] .001” below) ([1]; s result of a dish) was “− (− (T/C ≧ 50%))” and the “Test/control (%) class at drug concentration [μM] .01” value (“Test/control (%) class … [μM] .01” for short) ([1]; s result of a dish) was “− (− (T/C ≧ 50%))”. The “Test/control (%) at drug concentration [μM] 1.” value [2] was 90%, the “Test/control (%) at drug concentration [μM] 10.” value [2] was 100% and the “Test/control (%) at drug concentration [μM] 100.” value [2] was 0%. The “Test/control (%) at drug concentration [μM] .001” value [2] was 96%, the “Test/control (%) at drug concentration [μM] .01” value [2] was 91% and the “Test/control (%) at drug concentration [μM] .1” value [2] was 100%. For the same compound, the “Test/control (%) class … [μM] 1.” value [2] was “− (− (T/C ≧ 50%))”, the “Test/control (%) class … [μM] 10.” value [2] was “− (− (T/C ≧ 50%))” and the “Test/control (%) class … [μM] 100.” value [2] was “+++ (+++ (T/C ≦ 10%))”. The “Test/control (%) class … [μM] .001” value [2] was “− (− (T/C ≧ 50%))”, the “Test/control (%) class … [μM] .01” value [2] was “− (− (T/C ≧ 50%))” and the “Test/control (%) class … [μM] .1” value [2] was “− (− (T/C ≧ 50%))”. For the same compound, the “Sodium selenite T/C in %” value ([3]; 3.0 μM alone, X261, X295) was 91 ± 8%, the “Sodium selenite T/C in %” value ([3]; 30.0 μM alone, X261) was 80 ± 13% and the “Sodium selenite T/C in %” value ([3]; 30.0 μM alone, X295) was 49 ± 6%. The “Test/control (%) at drug concentration [μM] 1.” value ([3]; PAXF 546/2, *(2)) was 104%, the “Test/control (%) at drug concentration [μM] 10.” value ([3]; PAXF 546/2, *(2)) was 88% and the “Test/control (%) at drug concentration [μM] 100.” value ([3]; PAXF 546/2, *(2)) was 2%. The “Test/control (%) at drug concentration [μM] .001” value ([3]; PAXF 546/2, *(2)) was 82%, the “Test/control (%) at drug concentration [μM] .01” value ([3]; PAXF 546/2, *(2)) was 112% and the “Test/control (%) at drug concentration [μM] .1” value ([3]; PAXF 546/2, *(2)) was 100%. The “Test/control (%) class … [μM] 1.” value ([3]; PAXF 546/2, *(2)) was “− (− (T/C ≧ 50%))”, the “Test/control (%) class … [μM] 10.” value ([3]; PAXF 546/2, *(2)) was “− (− (T/C ≧ 50%))” and the “Test/control (%) class … [μM] 100.” value ([3]; PAXF 546/2, *(2)) was “+++ (+++ (T/C ≦ 10%))”. The “Test/control (%) class … [μM] .001” value ([3]; PAXF 546/2, *(2)) was “− (− (T/C ≧ 50%))”, the “Test/control (%) class … [μM] .01” value ([3]; PAXF 546/2, *(2)) was “− (− (T/C ≧ 50%))” and the “Test/control (%) class … [μM] .1” value ([3]; PAXF 546/2, *(2)) was “− (− (T/C ≧ 50%))”. The “Sodium selenite T/C in %” value ([4]; 3.0 μM alone, X265, X290) was 81 ± 12%, the “Sodium selenite T/C in %” value ([4]; 30.0 μM alone, X265) was 43 ± 8% and the “Sodium selenite T/C in %” value ([4]; 30.0 μM alone, X290) was 5 ± 2%. For the same compound, the “Sodium selenite T/C in %” value ([4]; 30.0 μM alone, X290, listed as selenium) was 5%, the “Test/control (%) at drug concentration [μM] 1.” value ([4]; PAXF 736/17, X184AM) was 88% and the “Test/control (%) at drug concentration [μM] 10.” value ([4]; PAXF 736/17, X184AM) was 90%. The “Test/control (%) at drug concentration [μM] 100.” value ([4]; PAXF 736/17, X184AM) was 4%, the “Test/control (%) at drug concentration [μM] .001” value ([4]; PAXF 736/17, X184AM) was 87% and the “Test/control (%) at drug concentration [μM] .01” value ([4]; PAXF 736/17, X184AM) was 77%. For the same compound, the “Test/control (%) at drug concentration [μM] .1” value ([4]; PAXF 736/17, X184AM) was 94%, the “Test/control (%) class … [μM] 1.” value ([4]; PAXF 736/17, X184AM) was “− (− (T/C ≧ 50%))” and the “Test/control (%) class … [μM] 10.” value ([4]; PAXF 736/17, X184AM) was “− (− (T/C ≧ 50%))”. For the same compound, the “Test/control (%) class … [μM] 100.” value ([4]; PAXF 736/17, X184AM) was “+++ (+++ (T/C ≦ 10%))”, the “Test/control (%) class … [μM] .001” value ([4]; PAXF 736/17, X184AM) was “− (− (T/C ≧ 50%))” and the “Test/control (%) class … [μM] .01” value ([4]; PAXF 736/17, X184AM) was “− (− (T/C ≧ 50%))”. For the same compound, the “Test/control (%) class … [μM] .1” value ([4]; PAXF 736/17, X184AM) was “− (− (T/C ≧ 50%))”, the plasma selenium ([5]; 8 hours after 10 mg selenium as sodium selenite) was 770 μg/I and the plasma selenium ([5]; 16 hours after 10 mg selenium as sodium selenite) was 430 μg/I. The “time until selenium level in plasma again reached its initial value” ([5]; after 10 mg selenium as sodium selenite) was 24 h, the “dose from which gastrointestinal toxicity was observed (reversible)” value ([5]; infusion, tumor patients) was “about 20 mg selenium” and the “selenium level in plasma” value ([5]; within 30 minutes after 10 mg selenium as sodium selenite, infused, rose from 200 μg/l) was 1200 µg/L.
